Assay results reported in US8420657B2 (Novartis AG, priority 2008, dated 2013).

Key:
GST-JAK2(808-1132) = molecular target: T1, GST-JAK2(808-1132) (Homo sapiens, UniProt O60674); test: JAK2 kinase assay (Caliper mobility shift, LabChip 3000); format: biochemical
T1 construct: GST-JAK2(808-1132); purchased Invitrogen (Carlsbad, USA) #4288
How it was run: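 Recombinant GST-JAK2(808-1132) kinase domain with FITC-labelled JAK3tide peptide substrate and ATP; 60 min at 30 °C, EDTA stop. Substrate/product ratio read by microfluidic mobility shift; compounds at 8 final concentrations, 10 to 0.003 μM.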

[1] = test system: JAK1/JAK2-dependent nuclear translocation of STAT1-GFP in HT1080 fibrosarcoma cells; test: STAT1 nuclear translocation assay (Cellomics), IFN-γ stimulated HT1080 STAT1-GFP cells; format: cell-based; conditions: Homo sapiens, HT-1080, STAT1 translocation pathway
How it was run: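 HT1080 cells stably expressing STAT1-GFP, pre-treated 30 min with compound (10 μM–0.003 μM, 0.1% DMSO), then stimulated 2 h with 100 ng/ml IFN-γ, fixed and Hoechst-stained. Nuclear-cytoplasmic GFP differential imaged over ≥1000 cells/well, normalised to unstimulated and DMSO-stimulated wells for IC50.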

T1 sequence (O60674 808-1132): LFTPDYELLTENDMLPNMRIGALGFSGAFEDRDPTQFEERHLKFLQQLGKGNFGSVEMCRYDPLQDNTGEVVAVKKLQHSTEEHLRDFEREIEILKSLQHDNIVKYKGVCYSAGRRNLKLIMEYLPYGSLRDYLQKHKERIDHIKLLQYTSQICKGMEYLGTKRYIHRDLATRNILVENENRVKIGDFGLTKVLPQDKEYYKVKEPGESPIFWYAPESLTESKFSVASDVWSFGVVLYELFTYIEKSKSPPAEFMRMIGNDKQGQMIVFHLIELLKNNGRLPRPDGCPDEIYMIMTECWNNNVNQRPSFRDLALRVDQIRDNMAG

CC(=O)c1ccc(Nc2ncc3ccn(-c4ccc(S(C)(=O)=O)cc4)c3n2)cc1 [Example 79, 1-{4-[7-(4-Methanesulfonyl-phenyl)-7H-pyrrolo[2,3-d]pyrimidin-2-ylamino]-phenyl}-ethanone]
IC50 (GST-JAK2(808-1132)): 0.0048 µM | IC50 [1]: 0.257 µM

Cn1cc(Nc2ncc3ccn(-c4ccc(C(=O)N5CCOCC5)c(F)c4)c3n2)cn1 [Example 302, {2-Fluoro-4-[2-(1-methyl-1H-pyrazol-4-ylamino)-pyrrolo[2,3-d]pyrimidin-7-yl]-phenyl}-morpholin-4-yl-methanone]
IC50 (GST-JAK2(808-1132)): 0.0061 µM | IC50 [1]: 0.085 µM

CN1CCN(C(=O)Cc2ccc(-n3ccc4cnc(Nc5ccc(C(F)(F)F)cc5)nc43)cc2)CC1 [Example 145, 1-(4-Methyl-piperazin-1-yl)-2-{4-[2-(4-trifluoromethyl-phenylamino)-pyrrolo[2,3-d]pyrimidin-7-yl]-phenyl}-ethanone]
IC50 (GST-JAK2(808-1132)): 0.007 µM | IC50 [1]: 0.365 µM

O=C(c1c(F)cc(-n2ccc3cnc(Nc4ccccn4)nc32)cc1F)N1CCOCC1 [Example 215, {2,6-Difluoro-4-[2-(pyridin-2-ylamino)-pyrrolo[2,3-d]pyrimidin-7-yl]-phenyl}-morpholin-4-yl-methanone]
IC50 (GST-JAK2(808-1132)): 0.42 µM | IC50 [1]: 10 µM

C[C@@H]1CN(c2ccc(Nc3ncc4ccn(-c5cc(F)c(CN6CCOCC6)c(F)c5)c4n3)cn2)C[C@H](C)N1 [Example 267, [7-(3,5-Difluoro-4-morpholin-4-ylmethyl-phenyl)-7H-pyrrolo[2,3-d]pyrimidin-2-yl]-[6-(cis-3,5-dimethyl-piperazin-1-yl)-pyridin-3-yl]-amine]
IC50 (GST-JAK2(808-1132)): < 0.003 µM | IC50 [1]: 0.05 µM

C[C@@H]1CN(Cc2ccc(Nc3ncc4ccn(-c5cc(F)c(CN6CCOCC6)c(F)c5)c4n3)cc2)[C@@H](C)CN1 (racemic) [Example 260, [7-(3,5-Difluoro-4-morpholin-4-ylmethyl-phenyl)-7H-pyrrolo[2,3-d]pyrimidin-2-yl]-[4-((2S,5R)-2,5-dimethyl-piperazin-1-ylmethyl)-phenyl]-amine]
IC50 (GST-JAK2(808-1132)): 0.005 µM | IC50 [1]: 0.28 µM

CN1CCN(C(=O)c2ccc(-n3ccc4cnc(Nc5ccc(F)cc5)nc43)cc2F)CC1 [Example 58, {2-Fluoro-4-[2-(4-fluoro-phenylamino)-pyrrolo[2,3-d]pyrimidin-7-yl]-phenyl}-(4-methyl-piperazin-1-yl)-methanone]
IC50 (GST-JAK2(808-1132)): 0.012 µM | IC50 [1]: 5.29 µM

CN1CCC(c2ccc(Nc3ncc4ccn(-c5ccc(S(C)(=O)=O)cc5)c4n3)cc2)CC1 [Example 16, [7-(4-Methanesulfonyl-phenyl)-7H-pyrrolo[2,3-d]pyrimidin-2-yl]-[4-(1-methyl-piperidin-4-yl)-phenyl]-amine]
IC50 (GST-JAK2(808-1132)): < 0.003 µM | IC50 [1]: 0.025 µM

CN1CCN(Cc2ccc(Nc3ncc4ccn(-c5ccc(S(C)(=O)=O)cc5)c4n3)cc2)CC1=O [Example 335, 4-{4-[7-(4-Methanesulfonyl-phenyl)-7H-pyrrolo[2,3-d]pyrimidin-2-ylamino]-benzyl}-1-methyl-piperazin-2-one]
IC50 (GST-JAK2(808-1132)): 0.0093 µM | IC50 [1]: 0.36 µM

Cc1ccc(Nc2ncc3ccn(-c4cc(F)c(CN5CCOCC5(C)C)c(F)c4)c3n2)cc1C [Example 309, {7-[4-(3,3-Dimethyl-morpholin-4-ylmethyl)-3,5-difluoro-phenyl]-7H-pyrrolo[2,3-d]pyrimidin-2-yl}-(3,4-dimethyl-phenyl)-amine]
IC50 (GST-JAK2(808-1132)): 0.78 µM | IC50 [1]: 4.16 µM

O=C(c1c(F)cc(-n2ccc3cnc(Nc4ccc(N5CCN(CCO)CC5)nc4)nc32)cc1F)N1CCOCC1 [Example 264, [2,6-Difluoro-4-(2-{6-[4-(2-hydroxy-ethyl)-piperazin-1-yl]-pyridin-3-ylamino}-pyrrolo[2,3-d]pyrimidin-7-yl)-phenyl]-morpholin-4-yl-methanone]
IC50 (GST-JAK2(808-1132)): < 0.003 µM | IC50 [1]: 0.165 µM

C[C@@H]1CN(Cc2ccc(Nc3ncc4ccn(-c5cc(F)c(C(=O)N6CCOCC6)c(F)c5)c4n3)cc2)[C@@H](C)CN1 (racemic) [Example 261, (4-{2-[4-((2S,5R)-2,5-Dimethyl-piperazin-1-ylmethyl)-phenylamino]-pyrrolo[2,3-d]pyrimidin-7-yl}-2,6-difluoro-phenyl)-morpholin-4-yl-methanone]
IC50 (GST-JAK2(808-1132)): 0.012 µM | IC50 [1]: 0.18 µM

COCc1ccc(Nc2ncc3ccn(-c4cc(F)c(C(=O)N5CCN(C)CC5)c(F)c4)c3n2)cc1 [Example 189, {2,6-Difluoro-4-[2-(4-methoxymethyl-phenylamino)-pyrrolo[2,3-d]pyrimidin-7-yl]-phenyl}-(4-methyl-piperazin-1-yl)-methanone]
IC50 (GST-JAK2(808-1132)): 0.0095 µM | IC50 [1]: 0.846 µM

Cc1ccc(Nc2ncc3ccn(-c4ccc(C(=O)N5CCOCC5)cc4)c3n2)cc1C [Example 169, {4-[2-(3,4-Dimethyl-phenylamino)-pyrrolo[2,3-d]pyrimidin-7-yl]-phenyl}-morpholin-4-yl-methanone]
IC50 (GST-JAK2(808-1132)): 0.0043 µM | IC50 [1]: 0.093 µM

CC(=O)N1CCN(Cc2c(F)cc(-n3ccc4cnc(Nc5ccc(F)c(C)c5)nc43)cc2F)CC1 [Example 133, 1-(4-{2,6-Difluoro-4-[2-(4-fluoro-3-methyl-phenylamino)-pyrrolo[2,3-d]pyrimidin-7-yl]-benzyl}-piperazin-1-yl)-ethanone]
IC50 (GST-JAK2(808-1132)): 0.0071 µM | IC50 [1]: 0.573 µM

C[C@@H]1CN[C@@H](C)CN1c1ccc(Nc2ncc3ccn(-c4cc(F)c(C(=O)N5CCOCC5)c(F)c4)c3n2)cn1 (racemic) [Example 269, (4-{2-[6-((2R,5S)-2,5-Dimethyl-piperazin-1-yl)-pyridin-3-ylamino]-pyrrolo[2,3-d]pyrimidin-7-yl}-2,6-difluoro-phenyl)-morpholin-4-yl-methanone]
IC50 (GST-JAK2(808-1132)): 0.01 µM | IC50 [1]: 0.465 µM

O=C(c1c(F)cc(-n2ccc3cnc(Nc4ccc(CN5CCNC6(CC6)C5)cc4)nc32)cc1F)N1CCOCC1 [Example 257]
IC50 (GST-JAK2(808-1132)): 0.01 µM | IC50 [1]: 0.15 µM

O=C(c1ccc(Nc2ncc3ccn(-c4ccc(CN5CCOCC5)c(Cl)c4)c3n2)cc1)N1CCOCC1 [Example 175, {4-[7-(3-Chloro-4-morpholin-4-ylmethyl-phenyl)-7H-pyrrolo[2,3-d]pyrimidin-2-ylamino]-phenyl}-morpholin-4-yl-methanone]
IC50 (GST-JAK2(808-1132)): < 0.003 µM | IC50 [1]: 0.275 µM

C[C@@H]1CN(c2ccc(Nc3ncc4ccn(-c5ccc(S(C)(=O)=O)cc5)c4n3)cn2)C[C@H](C)N1 [Example 273, [6-(cis-3,5-Dimethyl-piperazin-1-yl)-pyridin-3-yl]-[7-(4-methanesulfonyl-phenyl)-7H-pyrrolo[2,3-d]pyrimidin-2-yl]-amine]
IC50 (GST-JAK2(808-1132)): 0.006 µM | IC50 [1]: 0.19 µM

CN(C)C1CCN(C(=O)c2ccc(Nc3ncc4ccn(-c5ccc(S(C)(=O)=O)cc5)c4n3)cc2)CC1 [Example 66, (4-Dimethylamino-piperidin-1-yl)-{4-[7-(4-methanesulfonyl-phenyl)-7H-pyrrolo[2,3-d]pyrimidin-2-ylamino]-phenyl}-methanone]
IC50 (GST-JAK2(808-1132)): 0.0035 µM | IC50 [1]: 0.0755 µM

N#Cc1ccc(Nc2ncc3ccn(-c4cc(F)c(CN5CCS(=O)(=O)CC5)c(F)c4)c3n2)cc1 [Example 185, 4-{7-[4-(1,1-Dioxido-thiomorpholin-4-ylmethyl)-3,5-difluoro-phenyl]-7H-pyrrolo[2,3-d]pyrimidin-2-ylamino}-benzonitrile]
IC50 (GST-JAK2(808-1132)): < 0.003 µM | IC50 [1]: 0.29 µM

COc1ccc(Nc2ncc3ccn(-c4ccc(S(C)(=O)=O)cc4)c3n2)cc1OCCCN(C)C [Example 27, [3-(3-Dimethylamino-propoxy)-4-methoxy-phenyl]-[7-(4-methanesulfonyl-phenyl)-7H-pyrrolo[2,3-d]pyrimidin-2-yl]-amine]
IC50 (GST-JAK2(808-1132)): < 0.003 µM | IC50 [1]: 0.085 µM

Cc1ccc(Nc2ncc3ccn(-c4cc(F)c(CN5CCN(C)CC5)c(F)c4)c3n2)cc1C [Example 304, {7-[3,5-Difluoro-4-(4-methyl-piperazin-1-ylmethyl)-phenyl]-7H-pyrrolo[2,3-d]pyrimidin-2-yl}-(3,4-dimethyl-phenyl)-amine]
IC50 (GST-JAK2(808-1132)): 0.0135 µM | IC50 [1]: 1.49 µM

Cc1ccc(Nc2ncc3ccn(-c4cc(F)c(C(=O)N5CCOCC5)c(F)c4)c3n2)cc1Cl [Example 116, {4-[2-(3-Chloro-4-methyl-phenylamino)-pyrrolo[2,3-d]pyrimidin-7-yl]-2,6-difluoro-phenyl}-morpholin-4-yl-methanone]
IC50 (GST-JAK2(808-1132)): 0.0125 µM | IC50 [1]: 0.563 µM

Cc1ccc(Nc2ncc3ccn(-c4ccc(CS(C)(=O)=O)cc4)c3n2)cc1 [Example 140, [7-(4-Methanesulfonylmethyl-phenyl)-7H-pyrrolo[2,3-d]pyrimidin-2-yl]-p-tolyl-amine]
IC50 (GST-JAK2(808-1132)): 0.0045 µM | IC50 [1]: 0.31 µM

Cc1ccc(Nc2ncc3ccn(-c4ccc(S(C)(=O)=O)cc4)c3n2)cc1CN1CCNCC1 [Example 333, [7-(4-Methanesulfonyl-phenyl)-7H-pyrrolo[2,3-d]pyrimidin-2-yl]-(4-methyl-3-piperazin-1-ylmethyl-phenyl)-amine]
IC50 (GST-JAK2(808-1132)): 0.0039 µM | IC50 [1]: 0.53 µM

COc1ccc(Nc2ncc3ccn(-c4ccc(S(C)(=O)=O)cc4)c3n2)cc1OCCN1CCOCC1 [Example 29, [7-(4-Methanesulfonyl-phenyl)-7H-pyrrolo[2,3-d]pyrimidin-2-yl]-[4-methoxy-3-(2-morpholin-4-yl-ethoxy)-phenyl]-amine]
IC50 (GST-JAK2(808-1132)): < 0.003 µM | IC50 [1]: 0.091 µM

CN1CCN(Cc2cccc(Nc3ncc4ccn(-c5cc(F)c(CN6CCOCC6)c(F)c5)c4n3)c2)CC1 [Example 199, [7-(3,5-Difluoro-4-morpholin-4-ylmethyl-phenyl)-7H-pyrrolo[2,3-d]pyrimidin-2-yl]-[3-(4-methyl-piperazin-1-ylmethyl)-phenyl]-amine]
IC50 (GST-JAK2(808-1132)): < 0.003 µM | IC50 [1]: 0.222 µM
